Data as given in ChEMBL document CHEMBL1133618, “Synthesis and structure-activity relationships of 7-substituted 3-(2, 6-dichlorophenyl)-1,6-naphthyridin-2(1H)-ones as selective inhibitors of pp60(c-src)” (J Med Chem, 2000).

Tests used:
[1] = target: Fibroblast growth factor receptor 1 (Homo sapiens, UniProt P11362); test: Inhibitory activity against fibroblast growth factor receptor 1
[2] = target: Platelet-derived growth factor receptor beta (Mus musculus, UniProt P05622); test: Inhibitory activity against mouse PDGF beta receptor tyrosine kinase
Sequence of Platelet-derived growth factor receptor beta (P05622 whole entry): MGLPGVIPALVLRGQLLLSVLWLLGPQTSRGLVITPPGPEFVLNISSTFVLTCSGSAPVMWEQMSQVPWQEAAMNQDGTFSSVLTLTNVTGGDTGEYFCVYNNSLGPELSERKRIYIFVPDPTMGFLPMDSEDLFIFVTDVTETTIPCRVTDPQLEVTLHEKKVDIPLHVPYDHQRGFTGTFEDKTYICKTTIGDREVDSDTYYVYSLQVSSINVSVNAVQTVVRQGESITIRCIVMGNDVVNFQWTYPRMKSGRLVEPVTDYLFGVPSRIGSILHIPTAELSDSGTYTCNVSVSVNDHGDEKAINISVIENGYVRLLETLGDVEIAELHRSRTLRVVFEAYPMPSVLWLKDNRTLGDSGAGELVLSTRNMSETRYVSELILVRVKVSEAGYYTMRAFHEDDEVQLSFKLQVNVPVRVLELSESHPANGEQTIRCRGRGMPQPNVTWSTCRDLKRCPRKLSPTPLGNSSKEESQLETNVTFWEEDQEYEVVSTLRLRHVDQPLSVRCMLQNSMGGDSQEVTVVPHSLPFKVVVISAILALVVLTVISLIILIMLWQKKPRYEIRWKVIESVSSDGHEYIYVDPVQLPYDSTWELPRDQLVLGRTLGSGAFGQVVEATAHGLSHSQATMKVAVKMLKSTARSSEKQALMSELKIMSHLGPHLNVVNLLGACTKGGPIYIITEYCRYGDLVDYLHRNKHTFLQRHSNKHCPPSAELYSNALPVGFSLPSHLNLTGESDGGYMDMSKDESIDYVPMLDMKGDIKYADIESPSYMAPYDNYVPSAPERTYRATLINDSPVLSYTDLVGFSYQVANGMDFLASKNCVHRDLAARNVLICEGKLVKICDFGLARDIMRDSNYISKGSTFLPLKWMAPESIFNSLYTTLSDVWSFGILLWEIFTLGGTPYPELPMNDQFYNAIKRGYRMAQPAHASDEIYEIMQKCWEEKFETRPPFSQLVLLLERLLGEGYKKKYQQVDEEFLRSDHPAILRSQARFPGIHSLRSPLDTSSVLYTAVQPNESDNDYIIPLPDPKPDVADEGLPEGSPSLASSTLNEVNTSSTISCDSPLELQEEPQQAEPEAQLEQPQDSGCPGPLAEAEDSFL

[3] = target: Proto-oncogene tyrosine-protein kinase Src (Gallus gallus) (UniProt P00523); test: Inhibitory activity against avian c-Src tyrosine kinase was determined.
[4] = system: HT-29; test: Inhibitory activity against HT-29 human colon adenocarcinoma cells was determined.; format: functional, cell-based
[5] = system: SW-620; test: Inhibitory activity against SW-620 human colon adenocarcinoma cells was determined.; format: functional, cell-based
[6] = system: HCT-8; test: Inhibitory activity against HCT-8 human colon adenocarcinoma cells was determined.; format: functional, cell-based

Sequence of Fibroblast growth factor receptor 1 (P11362 whole entry): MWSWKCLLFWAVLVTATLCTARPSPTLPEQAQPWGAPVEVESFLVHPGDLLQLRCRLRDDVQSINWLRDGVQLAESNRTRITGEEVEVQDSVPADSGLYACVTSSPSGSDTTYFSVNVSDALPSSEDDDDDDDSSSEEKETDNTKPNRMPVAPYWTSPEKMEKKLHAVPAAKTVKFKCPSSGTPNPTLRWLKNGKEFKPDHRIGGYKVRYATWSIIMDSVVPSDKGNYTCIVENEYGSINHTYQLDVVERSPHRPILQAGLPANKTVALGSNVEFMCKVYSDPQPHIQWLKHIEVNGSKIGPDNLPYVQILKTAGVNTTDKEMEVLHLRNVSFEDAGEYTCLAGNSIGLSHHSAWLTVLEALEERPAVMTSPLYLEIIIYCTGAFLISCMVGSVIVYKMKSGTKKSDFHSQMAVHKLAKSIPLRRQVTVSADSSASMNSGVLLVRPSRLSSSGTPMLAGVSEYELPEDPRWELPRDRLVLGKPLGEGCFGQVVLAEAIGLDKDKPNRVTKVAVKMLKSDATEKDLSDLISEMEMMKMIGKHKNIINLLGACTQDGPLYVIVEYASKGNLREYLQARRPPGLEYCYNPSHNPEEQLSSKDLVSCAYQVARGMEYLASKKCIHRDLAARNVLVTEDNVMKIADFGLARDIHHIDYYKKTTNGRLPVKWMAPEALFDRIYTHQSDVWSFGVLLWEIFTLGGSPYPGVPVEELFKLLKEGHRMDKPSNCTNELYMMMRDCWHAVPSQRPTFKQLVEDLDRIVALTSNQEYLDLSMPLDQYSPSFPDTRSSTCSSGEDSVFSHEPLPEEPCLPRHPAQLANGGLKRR

CCN(CC)CCCNc1cc2c(cn1)cc(-c1c(Cl)cccc1Cl)c(=O)n2C
IC50 [1]: 150 nM | IC50 [2]: 4600 nM

CCN(CC)CCNc1ncc2cc(-c3c(Cl)cccc3Cl)c(=O)n(C)c2n1
IC50 [1]: > 50000 nM | IC50 [2]: > 50000 nM

CN(C)c1cc2c(cn1)cc(-c1c(Cl)cccc1Cl)c(=O)n2C
IC50 [1]: > 50000 nM | IC50 [2]: > 50000 nM

Cn1c(=O)c(-c2c(Cl)cccc2Cl)cc2cnc(Nc3ccccc3)nc21
IC50 [3]: 20 nM

Cn1c(=O)c(-c2c(Cl)cccc2Cl)cc2cnc(Nc3ccncc3)cc21
IC50 [1]: 3500 nM | IC50 [4]: 3700 nM | IC50 [2]: 6900 nM | IC50 [5]: 8700 nM | IC50 [6]: 7300 nM

Cn1c(=O)c(-c2c(Cl)cccc2Cl)cc2cnc(N)cc21
IC50 [1]: 380 nM | IC50 [4]: 1900 nM | IC50 [2]: 3600 nM | IC50 [6]: 2200 nM

CCN(CC)CCCOc1ccc(Nc2cc3c(cn2)cc(-c2c(Cl)cccc2Cl)c(=O)n3C)cc1
IC50 [1]: 250 nM | IC50 [2]: 360 nM

CN1CCN(CCOc2ccc(Nc3cc4c(cn3)cc(-c3c(Cl)cccc3Cl)c(=O)n4C)cc2)CC1
IC50 [2]: 260 nM

COc1ccc(Nc2ccc3cc(-c4c(Cl)cccc4Cl)c(=O)n(C)c3n2)cc1
IC50 [1]: > 50000 nM | IC50 [2]: > 50000 nM

CCN(CC)CCOc1ccc(Nc2cc3c(cn2)cc(-c2c(Cl)cccc2Cl)c(=O)n3C)cc1
IC50 [4]: 750 nM | IC50 [2]: 100 nM | IC50 [5]: 6700 nM | IC50 [6]: 2800 nM

CN1CCN(CCCCCNc2ncc3cc(-c4c(Cl)cccc4Cl)c(=O)n(C)c3n2)CC1
IC50 [3]: 60 nM

CCN(CC)C(=O)c1ccc(Nc2cc3c(cn2)cc(-c2c(Cl)cccc2Cl)c(=O)n3C)cc1
IC50 [1]: 1900 nM | IC50 [2]: 16000 nM

CCN(CC)CCCCNc1cc2c(cn1)cc(-c1c(Cl)cccc1Cl)c(=O)n2C
IC50 [1]: 80 nM | IC50 [2]: 2400 nM

CCN(CC)CCNc1cc2c(cn1)cc(-c1c(Cl)cccc1Cl)c(=O)n2C
IC50 [1]: 33000 nM | IC50 [2]: > 50000 nM

COc1ccc(Nc2ncc3cc(-c4c(Cl)cccc4Cl)c(=O)n(C)c3n2)cc1
IC50 [3]: 20 nM

CN1CCN(CCCNc2cc3nc(O)c(-c4c(Cl)cccc4Cl)cc3cn2)CC1
IC50 [1]: 72 nM | IC50 [2]: 1400 nM

CCN(CC)CCCNc1ccc2cc(-c3c(Cl)cccc3Cl)c(=O)n(C)c2n1
IC50 [1]: > 50000 nM | IC50 [2]: > 50000 nM

Cn1c(=O)c(-c2c(Cl)cccc2Cl)cc2cnc(NCCCN3CCOCC3)cc21
IC50 [2]: 5800 nM

CN1CCN(CCCNc2ccc3cc(-c4c(Cl)cccc4Cl)c(=O)n(C)c3n2)CC1
IC50 [1]: > 50000 nM | IC50 [2]: > 50000 nM

CCN(CC)CCCCCNc1cc2c(cn1)cc(-c1c(Cl)cccc1Cl)c(=O)n2C
IC50 [1]: 80 nM | IC50 [2]: 740 nM

CN1CCN(CCCNc2cc3c(cn2)cc(-c2c(Cl)cccc2Cl)c(=O)n3C)CC1
IC50 [1]: 170 nM | IC50 [4]: 2200 nM | IC50 [2]: 2800 nM | IC50 [5]: 7600 nM | IC50 [6]: 2800 nM

CN1CCN(c2ccc(Nc3cc4c(cn3)cc(-c3c(Cl)cccc3Cl)c(=O)n4C)cc2)CC1
IC50 [4]: 830 nM | IC50 [5]: 4300 nM | IC50 [6]: 2100 nM

Cn1c(=O)c(-c2c(Cl)cccc2Cl)cc2cnc(Nc3ccncc3)nc21
IC50 [4]: 140 nM | IC50 [6]: 16000 nM | IC50 [3]: 10 nM

Cn1c(=O)c(-c2c(Cl)cccc2Cl)cc2cnc(Nc3ccc(N4CCOCC4)cc3)cc21
IC50 [1]: 8700 nM | IC50 [2]: 2800 nM

CN1CCN(CCCNc2ncc3cc(-c4c(Cl)cccc4Cl)c(=O)n(C)c3n2)CC1
IC50 [4]: 15000 nM | IC50 [5]: 7500 nM | IC50 [6]: 2500 nM | IC50 [3]: 150 nM

Cn1c(=O)c(-c2c(Cl)cccc2Cl)cc2cnc(Nc3ccc(N4CCOCC4)cc3)nc21
IC50 [1]: 100 nM | IC50 [4]: 200 nM | IC50 [2]: 640 nM | IC50 [5]: 170 nM | IC50 [6]: 1500 nM

Cn1c(=O)c(-c2c(Cl)cccc2Cl)cc2cnc(NCCCn3ccnc3)cc21
IC50 [2]: 3200 nM

CNc1cc2c(cn1)cc(-c1c(Cl)cccc1Cl)c(=O)n2C
IC50 [1]: 210 nM | IC50 [4]: 2800 nM | IC50 [2]: 8000 nM | IC50 [6]: 1700 nM

CCN(CC)CCOc1ccc(Nc2ccc3cc(-c4c(Cl)cccc4Cl)c(=O)n(C)c3n2)cc1
IC50 [1]: > 50000 nM | IC50 [2]: > 50000 nM

CN1CCN(CCCCCNc2cc3c(cn2)cc(-c2c(Cl)cccc2Cl)c(=O)n3C)CC1
IC50 [2]: 9900 nM

CN1CCN(CCCCNc2ncc3cc(-c4c(Cl)cccc4Cl)c(=O)n(C)c3n2)CC1
IC50 [5]: > 25000 nM | IC50 [6]: > 25000 nM

CNc1ncc2cc(-c3c(Cl)cccc3Cl)c(=O)n(C)c2n1
IC50 [4]: 4100 nM | IC50 [5]: 5000 nM | IC50 [6]: 7800 nM | IC50 [3]: 750 nM

CCN(CC)CCOc1ccc(Nc2ncc3cc(-c4c(Cl)cccc4Cl)c(=O)n(C)c3n2)cc1 [PD-0166285]
IC50 [4]: 280 nM | IC50 [5]: 270 nM | IC50 [6]: 420 nM

Cn1c(=O)c(-c2c(Cl)cccc2Cl)cc2cnc(Nc3ccccc3)cc21
IC50 [1]: 2200 nM | IC50 [2]: 1400 nM

CN1CCN(c2ccc(Nc3ncc4cc(-c5c(Cl)cccc5Cl)c(=O)n(C)c4n3)cc2)CC1
IC50 [4]: 240 nM | IC50 [5]: 120 nM | IC50 [6]: 240 nM

CCN(CC)C(=O)c1ccc(Nc2ncc3cc(-c4c(Cl)cccc4Cl)c(=O)n(C)c3n2)cc1
IC50 [1]: 180 nM | IC50 [2]: 290 nM

Cn1c(=O)c(-c2c(Cl)cccc2Cl)cc2ccc(N)nc21
IC50 [1]: > 50000 nM | IC50 [2]: > 50000 nM

CCN(CC)CCCCNc1cc2nc(O)c(-c3c(Cl)cccc3Cl)cc2cn1
IC50 [1]: 170 nM | IC50 [2]: 1100 nM

Cn1c(=O)c(-c2c(Cl)cccc2Cl)cc2ccc(Nc3ccccc3)nc21
IC50 [1]: > 50000 nM | IC50 [2]: > 50000 nM

Cn1c(=O)c(-c2c(Cl)cccc2Cl)cc2cnc(N)nc21
IC50 [5]: 2600 nM

COc1ccc(Nc2cc3c(cn2)cc(-c2c(Cl)cccc2Cl)c(=O)n3C)cc1
IC50 [1]: 2200 nM | IC50 [2]: 6800 nM

CN1CCN(CCCCNc2cc3c(cn2)cc(-c2c(Cl)cccc2Cl)c(=O)n3C)CC1
IC50 [4]: 1600 nM | IC50 [2]: 1100 nM | IC50 [5]: 2600 nM | IC50 [6]: 2400 nM

CCN(CC)CCCOc1ccc(Nc2cc3nc(O)c(-c4c(Cl)cccc4Cl)cc3cn2)cc1
IC50 [1]: 440 nM | IC50 [2]: 790 nM

CN1CCN(CCCOc2ccc(Nc3cc4c(cn3)cc(-c3c(Cl)cccc3Cl)c(=O)n4C)cc2)CC1
IC50 [2]: 900 nM
